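Results reflect a 48-hour exposure of cells in 96-well plates to compound at five concentrations. At the GI50, growth is halved.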 Active and inactive are the calls of the source. Rule as the data show it: active = GI50 up to about 1.1 µM and inactive = higher.
Experiments:
Test in all cases: NCI anticancer screen, dose series, 48 h
SK-MEL-5 = system: SK-MEL-5
UACC-62 = system: UACC-62
DU-145 = system: DU-145
HOP-62 = system: HOP-62
SNB-19 = system: SNB-19
OVCAR-8 = system: OVCAR-8
U-251 = system: U-251
UO-31 = system: UO-31
ACHN = system: ACHN
SNB-75 = system: SNB-75
OVCAR-3 = system: OVCAR-3
CCRF-CEM = system: CCRF-CEM
KM12 = system: KM12
EKVX = system: EKVX
SF-539 = system: SF-539
SN12C = system: SN12C
MDA-MB-435 = system: MDA-MB-435
MDA-MB-231 = system: MDA-MB-231
SW-620 = system: SW-620

SMILES	GI50 (SK-MEL-5)	GI50 (UACC-62)	GI50 (DU-145)	GI50 (HOP-62)	GI50 (SNB-19)	GI50 (OVCAR-8)	GI50 (U-251)	GI50 (UO-31)	GI50 (ACHN)	GI50 (SNB-75)	GI50 (OVCAR-3)	GI50 (CCRF-CEM)	GI50 (KM12)	GI50 (EKVX)	GI50 (SF-539)	GI50 (SN12C)	GI50 (MDA-MB-435)	GI50 (MDA-MB-231)	GI50 (SW-620)
CCOC(=O)c1c(N2CCOCC2)[nH]c(=O)c(C(c2ccc(Cl)c([N+](=O)[O-])c2)c2c(O)c(C(=O)OCC)c(N3CCOCC3)[nH]c2=O)c1O	24.3 µM (inactive)	40.1 µM (inactive)	22.9 µM (inactive)	34.9 µM (inactive)	26.5 µM (inactive)	18.4 µM (inactive)	19.6 µM (inactive)	34 µM (inactive)	55.1 µM (inactive)	48.1 µM (inactive)	17.2 µM (inactive)	4.76 µM (inactive)	> 100 µM (inactive)	> 100 µM (inactive)	26.5 µM (inactive)	20.5 µM (inactive)	30.6 µM (inactive)	15.2 µM (inactive)	23.4 µM (inactive)
O=C1N[C@H]2C(=O)c3c(Cl)sc(Cl)c3[C@H]2O1	18.1 µM (inactive)	13.3 µM (inactive)	11.2 µM (inactive)	16.5 µM (inactive)	15.2 µM (inactive)	2.79 µM (inactive)	3.32 µM (inactive)	1.71 µM (inactive)	7.6 µM (inactive)	15.5 µM (inactive)	1.92 µM (inactive)	0.774 µM (active)	17.3 µM (inactive)	2 µM (inactive)	5.85 µM (inactive)	10.9 µM (inactive)	4.81 µM (inactive)	14.1 µM (inactive)	2.18 µM (inactive)
COc1ccc2c(=O)c3ccoc3n(CC=C(C)C)c2c1 [ACROPHYLLINE]	32 µM (inactive)	48.4 µM (inactive)	34 µM (inactive)	> 79.1 µM (inactive)	> 76.6 µM (inactive)	39.5 µM (inactive)	> 100 µM (inactive)	18.2 µM (inactive)	8.49 µM (inactive)	26.4 µM (inactive)	85.7 µM (inactive)	39.4 µM (inactive)	45.9 µM (inactive)	43.9 µM (inactive)	97.1 µM (inactive)	> 100 µM (inactive)	75.9 µM (inactive)	72.9 µM (inactive)	97.3 µM (inactive)
CCOC(=O)c1c(N2CCOCC2)[nH]c(=O)c(C(c2c(O)c(C(=O)OCC)c(N3CCOCC3)[nH]c2=O)C(C)C)c1O	> 100 µM (inactive)	> 100 µM (inactive)	> 100 µM (inactive)	60.4 µM (inactive)	83.6 µM (inactive)	> 100 µM (inactive)	> 100 µM (inactive)	> 100 µM (inactive)	> 100 µM (inactive)	22.4 µM (inactive)	> 100 µM (inactive)	> 100 µM (inactive)	> 100 µM (inactive)	> 100 µM (inactive)	> 100 µM (inactive)	> 100 µM (inactive)	> 100 µM (inactive)	> 100 µM (inactive)	> 100 µM (inactive)
CCNc1ccc2c(c1)Cc1ccccc1-2	25.8 µM (inactive)	40.7 µM (inactive)	59.8 µM (inactive)	> 100 µM (inactive)	48.1 µM (inactive)	51.5 µM (inactive)	44.3 µM (inactive)	52.4 µM (inactive)	77.4 µM (inactive)	> 100 µM (inactive)	29 µM (inactive)	> 100 µM (inactive)	26.1 µM (inactive)	32.4 µM (inactive)	43.8 µM (inactive)	64 µM (inactive)	49.5 µM (inactive)	64.1 µM (inactive)	83.6 µM (inactive)
Cc1ccc(O)c(C2=CC(c3cccc(Br)c3)SC(=N)N2)c1 (stereo not given)	17 µM (inactive)	17.1 µM (inactive)	34.5 µM (inactive)	21.6 µM (inactive)	13.6 µM (inactive)	35.2 µM (inactive)	17.5 µM (inactive)	25 µM (inactive)	23.3 µM (inactive)	19.5 µM (inactive)	39.5 µM (inactive)	25.6 µM (inactive)	27 µM (inactive)	21 µM (inactive)	22.4 µM (inactive)	20.8 µM (inactive)	18.7 µM (inactive)	25.8 µM (inactive)	28.4 µM (inactive)
C=C(C(=O)OC)c1cc2ccccc2n1S(=O)(=O)c1ccccc1	2.14 µM (inactive)	4.52 µM (inactive)	2.69 µM (inactive)	3.43 µM (inactive)	12.1 µM (inactive)	2.44 µM (inactive)	1.92 µM (inactive)	2.36 µM (inactive)	1.8 µM (inactive)	3.3 µM (inactive)	3.4 µM (inactive)	1.24 µM (inactive)	2.04 µM (inactive)	12.1 µM (inactive)	1.62 µM (inactive)	2.67 µM (inactive)	2.55 µM (inactive)	1.98 µM (inactive)	2.09 µM (inactive)
C(=C\c1cc(-c2ccc3ccccc3n2)nc2ccc3ccccc3c12)/c1ccc2ccccc2n1	> 100 µM (inactive)	> 100 µM (inactive)	> 100 µM (inactive)	> 100 µM (inactive)	> 100 µM (inactive)	> 100 µM (inactive)	> 100 µM (inactive)	> 100 µM (inactive)	> 100 µM (inactive)	24 µM (inactive)	> 100 µM (inactive)	> 100 µM (inactive)	> 100 µM (inactive)	> 100 µM (inactive)	62.2 µM (inactive)	> 100 µM (inactive)	> 100 µM (inactive)	> 100 µM (inactive)	> 100 µM (inactive)
COC(=O)c1c(C)cccc1C1CN=NC12Cc1ccccc1C2=O (stereo not given)	37.4 µM (inactive)	74.6 µM (inactive)	> 100 µM (inactive)	> 100 µM (inactive)	> 100 µM (inactive)	> 100 µM (inactive)	> 100 µM (inactive)	33.1 µM (inactive)	> 100 µM (inactive)	65.2 µM (inactive)	15.7 µM (inactive)	38.6 µM (inactive)	> 78 µM (inactive)	> 93.5 µM (inactive)	> 100 µM (inactive)	> 100 µM (inactive)	> 82 µM (inactive)	45.7 µM (inactive)	> 100 µM (inactive)
O=C1CSC(c2ccccc2O)N1c1nc2cc3sc(N4C(=O)CSC4c4ccccc4O)nc3cc2s1 (stereo not given)	50.5 µM (inactive)	> 87.5 µM (inactive)	34.7 µM (inactive)	> 100 µM (inactive)	42 µM (inactive)	37.2 µM (inactive)	36.3 µM (inactive)	23.3 µM (inactive)	> 44.6 µM (inactive)	99.8 µM (inactive)	> 100 µM (inactive)	3.93 µM (inactive)	> 68.4 µM (inactive)	61.9 µM (inactive)	59.6 µM (inactive)	> 40.5 µM (inactive)	34.3 µM (inactive)	> 57.8 µM (inactive)	22.4 µM (inactive)
